According to article PMC10747733, “N-Substituted 2-(Benzenosulfonyl)-1-Carbotioamide Derivatives Exert Antimicrobial and Cytotoxic Effects via Aldehyde Dehydrogenase Pathway: Synthesis, In Silico and In Vitro Studies” (Pharmaceuticals, 2023):
Values after ≈ are worked out from the molar mass of the structure shown.

Columns and labels:
Type in all cases: cell-based
[1] = system: Staphylococcus aureus ATCC 43300; test: Broth microdilution antimicrobial activity; conditions: Staphylococcus aureus ATCC 43300
How it was run: (§1)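 Broth microdilution per EUCAST and CLSI guidelines, with Mueller-Hinton broth for bacteria and RPMI 1640 with MOPS for yeast. Inocula were adjusted to 0.5 McFarland, compounds were tested from 2000 to 0.98 µg/mL, and plates were incubated 18–24 h at 35 °C. MBC/MFC came from subculturing MIC wells onto solid medium.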

[2] = system: Bacillus cereus ATCC 10876; test: Broth microdilution antimicrobial activity
How it was run: as §1

[3] = system: Staphylococcus aureus ATCC 29213; test: Broth microdilution antimicrobial activity; conditions: Staphylococcus aureus ATCC 29213
How it was run: as §1

[4] = system: Salmonella Typhimurium ATCC 14028; test: Broth microdilution antimicrobial activity
How it was run: as §1

[5] = system: Candida glabrata ATCC 90030; test: Broth microdilution antimicrobial activity
How it was run: as §1

[6] = system: Klebsiella pneumoniae ATCC 13883; test: Broth microdilution antimicrobial activity
How it was run: as §1

[7] = system: Micrococcus luteus ATCC 10240; test: Broth microdilution antimicrobial activity
How it was run: as §1

[8] = system: Pseudomonas aeruginosa ATCC 9027; test: Broth microdilution antimicrobial activity
How it was run: as §1

[9] = system: Bordetella bronchiseptica ATCC 4617; test: Broth microdilution antimicrobial activity
How it was run: as §1

[10] = system: Escherichia coli ATCC 25922; test: Broth microdilution antimicrobial activity
How it was run: as §1

[11] = system: Staphylococcus aureus ATCC 25923; test: Broth microdilution antimicrobial activity
How it was run: as §1

[12] = system: Candida albicans ATCC 2091; test: Broth microdilution antimicrobial activity
How it was run: as §1

[13] = system: Staphylococcus epidermidis ATCC 12228; test: Broth microdilution antimicrobial activity
How it was run: as §1

[14] = system: Enterococcus faecalis ATCC 29212; test: Broth microdilution antimicrobial activity; conditions: Enterococcus faecalis ATCC 29212
How it was run: as §1

[15] = system: Proteus mirabilis ATCC 12453; test: Broth microdilution antimicrobial activity
How it was run: as §1

[16] = system: Candida albicans ATCC 10231; test: Broth microdilution antimicrobial activity
How it was run: as §1

[17] = system: Candida krusei ATCC 14243; test: Broth microdilution antimicrobial activity
How it was run: as §1

Gram-positive bacteria = test: Broth microdilution, summary over reference Gram-positive bacteria
From the text: Reference strains of microorganisms that came from American Type Culture Collection (ATCC) (Manassas, VA, USA) were used for this study. The representative Gram-positive bacteria were as follows: Staphylococcus aureus ATCC 25923, Staphylococcus aureus ATCC 29213, Staphylococcus aureus ATCC 43300, Staphylococcus epidermidis ATCC 12228, Enterococcus faecalis ATCC 29212, Micrococcus luteus ATCC 10240, Bacillus subtilis ATCC 6633 and Bacillus cereus ATCC 10876. While, those of Gram-negative bacteria were as follows: Bordetella bronchiseptica ATCC 4617, Escherichia coli ATCC 25922, Klebsiella pneumoniae ATCC 13883, Proteus mirabilis ATCC 12453, Salmonella Typhimurium ATCC 14028 and Pseudomonas aeruginosa ATCC 9027. Moreover, the following fungi belonging to yeasts were used: Candida albicans ATCC 10231, Candida albicans ATCC 2091, Candida parapsilosis ATCC 22019, Candida glabrata ATCC 90030 and Candida krusei ATCC 14243.
The new compounds WZ1–WZ4 were assayed for both antibacterial and antifungal activity using the broth microdilution method in accordance with the European Committee on Antimicrobial Susceptibility Testing (EUCAST) and Clinical and Laboratory Standards Institute (CLSI) guidelines. The microorganisms were grown at 35 °C for 18–24 h on appropriate media (nutrient agar and Sabouraud for bacteria and fungi, respectively) (BioMaxima S.A., Lublin, Poland). Next, microbial suspensions with an optical density of 0.5 McFarland standard scale (in sterile 0.85% NaCl) were prepared. In turn, the tested compounds were initially diluted at 50 mg/mL in dimethyl sulfoxide (DMSO) and the broth microdilution method was used to assess their minimum inhibitory concentrations (MICs). For these studies, selective broth Mueller-Hinton (MH) (BioMaxima S.A., Lublin, Poland) and RPMI (Roswell Park Memorial Institute) 1640 with MOPS (3-(N-Morpholino)propanesulfonic acid) (Sigma-Aldrich Chemicals, St. Louis, MO, USA) were used for bacteria and fungi, respectively. The antimicrobial effect of compounds WZ1–WZ4 was determined in the concentration range from 2000 to 0.98 µg/mL.
Then, the microbial suspensions were introduced into each well of the microplate and incubated for 18–24 h at 35 °C. […] The reference drugs ciprofloxacin or vancomycin (against bacteria) and nystatin (against fungi) (Sigma-Aldrich Chemicals, St. Louis, MO, USA) were also used. Next, the values of the minimum bactericidal concentration (MBC) and minimum fungicidal concentration (MFC) of WZ1–WZ4 were assessed. For this purpose, the cultures from each MIC determination well were transferred to a suitable solid medium and incubated under appropriate conditions. The lowest concentrations of compounds without microbial growth were read as MBC or MFC. The studies were performed in triplicate and representative data were gathered.
In turn, the MBC/MIC or MFC/MIC ratios were used to assess bactericidal/fungicidal (MBC/MIC or MFC/MIC ≤ 4) and bacteriostatic/fungistatic (MBC/MIC or MFC/MIC > 4) effect of these compounds [93].

Structure (SMILES): CCCCCCNC(=S)NNS(=O)(=O)c1ccccc1 [WZ3, 2-(Benzenesulfonyl)-N-Hexylhydrazine-1-Carbothioamide]
- MBC ([1]; ATCC43300): 500 µg/mL (≈ 1580 µM)
- MIC ([1]; ATCC43300): 250 µg/mL (≈ 792 µM)
- MBC/MIC [1]: 2
- MBC/MIC [2]: 1
- MBC ([2]; ATCC10876): 250 µg/mL (≈ 792 µM)
- MIC ([2]; ATCC10876): 250 µg/mL (≈ 792 µM)
- MBC ([3]; ATCC29213): 500 µg/mL (≈ 1580 µM)
- MIC ([3]; ATCC29213): 500 µg/mL (≈ 1580 µM)
- MBC/MIC [3]: 1
- MBC/MIC [4]: > 2
- MBC ([4]; Salmonella enterica): > 2000 µg/mL
- MIC ([4]; Salmonella enterica): 1000 µg/mL (≈ 3170 µM)
- MFC/MIC [5]: 1
- MFC ([5]; Nakaseomyces glabratus, ATCC90030, read-out: MFC): 2000 µg/mL (≈ 6340 µM)
- MIC ([5]; Nakaseomyces glabratus, ATCC90030, read-out: MIC): 2000 µg/mL (≈ 6340 µM)
- MBC/MIC [6]: > 2
- MBC ([6]; ATCC13883): > 2000 µg/mL
- MIC ([6]; ATCC13883): 1000 µg/mL (≈ 3170 µM)
- MBC/MIC [7]: 2
- MBC ([7]; ATCC10240): 500 µg/mL (≈ 1580 µM)
- MIC ([7]; ATCC10240): 250 µg/mL (≈ 792 µM)
- MBC/MIC [8]: 1
- MBC ([8]; ATCC9027): 1000 µg/mL (≈ 3170 µM)
- MIC ([8]; ATCC9027): 1000 µg/mL (≈ 3170 µM)
- MBC/MIC [9]: > 4
- MBC ([9]; ATCC4617): > 2000 µg/mL
- MIC ([9]; ATCC4617): 500 µg/mL (≈ 1580 µM)
- MBC/MIC [10]: > 4
- MBC ([10]; ATCC25922): > 2000 µg/mL
- MIC ([10]; ATCC25922): 500 µg/mL (≈ 1580 µM)
- MBC/MIC [11]: 4
- MBC ([11]; ATCC25923): 1000 µg/mL (≈ 3170 µM)
- MIC ([11]; ATCC25923): 250 µg/mL (≈ 792 µM)
- MFC/MIC [12]: 2
- MFC ([12]; ATCC2091, read-out: MFC): 1000 µg/mL (≈ 3170 µM)
- MIC ([12]; ATCC2091, read-out: MIC): 500 µg/mL (≈ 1580 µM)
- MBC/MIC [13]: 1
- MBC ([13]; ATCC12228): 250 µg/mL (≈ 792 µM)
- MIC ([13]; ATCC12228): 250 µg/mL (≈ 792 µM)
- MBC ([14]; ATCC29212, read-out: MBC): > 2000 µg/mL
- MIC ([14]; ATCC29212, read-out: MIC): 500 µg/mL (≈ 1580 µM)
- MBC/MIC [14]: > 4
- MBC/MIC [15]: > 2
- MBC ([15]; ATCC12453): > 2000 µg/mL
- MIC ([15]; ATCC12453): 1000 µg/mL (≈ 3170 µM)
- MFC/MIC [16]: 2
- MFC ([16]; ATCC10231, read-out: MFC): 1000 µg/mL (≈ 3170 µM)
- MIC ([16]; ATCC10231, read-out: MIC): 500 µg/mL (≈ 1580 µM)
- MFC/MIC [17]: 2
- MFC ([17]; Pichia kudriavzevii, ATCC14243, read-out: MFC): 1000 µg/mL (≈ 3170 µM)
- MIC ([17]; Pichia kudriavzevii, ATCC14243, read-out: MIC): 500 µg/mL (≈ 1580 µM)
- MIC (Gram-positive bacteria; Bacillus subtilis, remaining Gram-positive microorganisms (other than B. subtilis)): 250 to 500 µg/mL (≈ 792 to 1580 µM)
- MIC (Gram-positive bacteria; almost all Gram-positive bacteria): 62.5 to 500 µg/mL (≈ 198 to 1580 µM)
- share of reference Gram-positive strains with good activity (Gram-positive bacteria; good activity: MIC 26–125 µg/mL, 8 strains): 12.5%
- share of reference Gram-positive strains with moderate activity (Gram-positive bacteria; moderate activity: MIC 126–500 µg/mL, 8 strains): 87.5%
- MBC/MIC ratio (Gram-positive bacteria; most Gram-positive bacteria): 1–4
